Test results as given in US7875607B2, “7,8-bicycloakyl-chroman derivatives” (Ampere Life Sciences, Inc., priority 2004, dated 2011).

Experiments:
[1] = tested on: LTB4 production in heparinized whole blood; assay: Inhibition of LTB4 production in blood; assay type: cell-based, rat or mouse; conditions: 20 μM A23187, read-out: EC50, protection against LTB4
How it was run: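 Heparinized rat or mouse whole blood preincubated with test agent 10 min at 37°C, then stimulated with calcium ionophore A23187 (20 μM final) for 30 min. Plasma methanol-precipitated and LTB4 measured by EIA; percent inhibition versus vehicle used to derive IC50.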

[2] = tested on: IL-1beta production in mouse microglial cell line; assay: Interleukin-1β microglial cell assay; assay type: cell-based; conditions: LPS 10 μg/ml and IFN gamma 10 ng/ml, 24 hours, read-out: EC50, inhibition of IL-1beta production
Description: This assay measures the release of IL-1β from a mouse microglial cell line following an inflammatory challenge with LPS and interferon-gamma. The ability of test articles to inhibit microglial cell activation and IL-1β release is determined by co-incubation of the test article with the inflammatory challenge.
Mouse microglial cells were seeded in poly-D-lysine coated 96-well plates at a density of 10,000 cells/well and allowed to attach for 24 hours. Cells were stimulated by addition of LPS (10 μg/ml) and IFN gamma (10 ng/ml) in the presence or absence of test article. The cells were then incubated for 24 hours at 37° C., after which time the media was removed and used for cytokine determination as described below.
Viability of mouse microglial cells after exposure to the test article was determined using a fluorescent viability dye, Cell Tracker Green. Cell Tracker Green was used at a working concentration of 5 μM in 1×HBSS. Cells were washed once with HBSS (200 μl/well) and 100 μl Cell Tracker Green was added to each well. Cells were then incubated at 37° C. for 30 minutes, after which time the Cell Tracker was removed and the cells were washed once with HBSS (200 μl/well). 100 μl fresh HBSS was added to each well and the plate was read on a Fluoroskan plate reader using an excitation wavelength of 485 nm and an emission wavelength of 538 nm.
Solutions: • Wash Buffer: PBS 1 L+500 μl Tween 20 (final 0.05%) pH 7.2-7.4. • Blocking Buffer: 500 ml PBS+5 g BSA V (1%)+25 g Sucrose (5%)+0.25 g Sodium Azide (0.05%). • Reagent Diluent: 500 ml PBS+5 g BSA V (1%) pH 7.2-7.4 and filter sterilize through 0.2 μm. • Stop Solution: 2N sulfuric acid.
Duo Set Preparations: • 1. The IL-1β capture antibody was reconstituted in 1 ml of PBS to give a final concentration of 720 μg/ml, and the working concentration was 4 μg/ml. For coating one 96-well plate (at 100 μl/well) 56 μl of the 720 μg/ml stock was diluted into 10 ml of PBS. • 2. The IL-1β standards were reconstituted in 0.5 ml of Reagent Diluent (70 ng/ml). For a high standard of 1 ng/ml (2 wells at 100 μl each+enough for series dilution) 7.1 μl of the 70 ng/ml standard were diluted into 0.5 ml of Reagent Diluent • 3. The IL-1β detection antibody was reconstituted in 1 ml of Reagent Diluent to give a final concentration of 18 μg/ml and the working concentration is 100 ng/ml. For one 96-well plate (at 100 μl/well) 56 μl of the 18 μg/ml stock was diluted into 10 ml of Reagent Diluent.
• The Costar EIA Hi-binding plate was coated with capture antibody at 4 μg/ml. Each well was coated with 100 μl, and the plate was sealed and incubated overnight at room temperature. • Each well was aspirated and washed 3× with Wash Buffer. Each well was filled to the top, dispensed, and any remaining buffer was removed by inverting the plate and gently blotting against clean paper towels. • Non-specific binding sites were blocked by adding 300 μl of Blocking Buffer to each well, and after sealing incubating for at least 1 hour at room temperature. • After washing the plate was now ready for the samples. Assay Procedure: • 100 μl of either standard or sample were added in each well of the capture-coated and pre-blocked plate. The plate was sealed and incubated for 2 hours at room temperature, followed with washing. • 100 μl of the detection antibody (10 ng/ml) were added to each well. […]

| EC50 [2] [µM] | Compound | EC50 [1] [µM] |
| --- | --- | --- |
| – | CC(C)CSCCCC1(C)CCc2cc(O)c3c(c2O1)C1CCC3C1 (stereo not drawn) [2-(3-isobutylsulfanyl-propyl)-2-methyl-3,4,7,8,9,10-hexahydro-7,10-methano-2H-benzo[h]chromen-6-ol] | ≤ 10 |
| ≤ 20 | CC(C)=CCc1c(O)c2c(c3c1CCC(C)(C)O3)C1CCC2C1 (stereo not drawn) [2,2-Dimethyl-5-(3-methyl-but-2-enyl)-3,4,7,8,9,10-hexahydro-7,10-methano-2H-benzo[h]chromen-6-ol] | – |
| ≤ 20 | CC(C)CCc1c(O)c2c(c3c1CCC(C)(C)O3)C1CCC2C1 (stereo not drawn) [2,2-Dimethyl-5-(3-methyl-butyl)-3,4,7,8,9,10-hexahydro-7,10-methano-2H-benzo[h]chromen-6-ol] | – |
| – | CC1(CCCCl)CCc2cc(O)c3c(c2O1)C1CCC3C1 (stereo not drawn) [2-(3-Chloro-propyl)-2-methyl-3,4,7,8,9,10-hexahydro-7,10-methano-2H-benzo[h]chromen-6-ol] | ≤ 10 |
| – | CC1(CCCSc2nccs2)CCc2cc(O)c3c(c2O1)C1CCC3C1 (stereo not drawn) [2-Methyl-2-[3-(thiazol-2-ylsulfanyl)-propyl]-3,4,7,8,9,10-hexahydro-7,10-methano-2H-benzo[h]chromen-6-ol] | ≤ 10 |
| – | CC1(C)CCc2cc(O)c3c(c2O1)C1CCC3CC1 [2,2-Dimethyl-3,4,7,8,9,10-hexahydro-7,10-ethano-2H-benzo[h]chromen-6-ol] | ≤ 10 |
